As a reminder, the IC50 is the concentration that gives 50% inhibition. Higher therefore signals a need for much substance.

This assay is described as follows: Inhibition of phosphatidylinositol (PI) hydrolysis. It counts as functional.

`CCCCCCCCCCCCCCCC(=O)OC[C@H](COP(=O)(O)O[C@H]1C[C@@H](O)C(O)[C@@H](O)C1O)OC(=O)CCCCCCCCCCCCCCC` (stereo partly specified) yielded an IC50 of 2000 µM.

These data come from ChEMBL document CHEMBL1126399, “Synthesis and enzymatic properties of a deoxy analog of phosphatidylinositol” (Bioorg Med Chem Lett, 1992).
